{"source": "patent US8765197B2", "about": "“Extract of herbal and composition containing the same” (Dong-A-Pharm, Co., Ltd., priority 2006, dated 2014)", "origin": "cited, not measured here", "system": "functional dyspepsia"}
{"smiles": "COc1cc(N)c(Cl)cc1C(=O)NC1CCN(CCCOc2ccc(F)cc2)CC1OC", "note": "(centres unmarked) [cisapride]", "values": [{"measurement": "cases in which effective", "setting": "administered for 4 to 8 weeks", "result": "more than 70%"}, {"measurement": "response rate", "setting": "functional dyspepsia, placebo 27-53%", "result": "50-82%"}]}
